Laboratory results as given in US5935997A, “O-thiocarbamoyl-aminoalkanol compounds, their pharmaceutically useful salts and process for preparing the same” (Yukong Limited, priority 1998, dated 1999).

Tests used:
mice (CD-1strain) = assay: Maximal ElectroShock (MES) test (anticonvulsant); type: in vivo; conditions: for MES (animals protected/tested): 30 mg/kg; for ED50: Mus musculus
mice (CD-1 strain) = assay: Forced Swimming Test (antidepressant; reduction of immobility); type: in vivo; conditions: one hour prior to immersion, immobility in 15 min
Protocol: The therapeutic use of the compounds claimed in the present invention as antidepressants has been proven by the "Forced Swinuning Test", a well known pharmacological screening methods for depression and the results are shown in the following Table II. The procedure described by Porsolt et al., […] was used. Test compound was administered p.o. and i.p. to mice (CD-1 strain), one hour prior to the animals being immersed in a 1500 mL glass beaker (16.5 cm deep, 13.0 cm diameter) filled with water (20~23° C.) to about 5 cm from the top. Mice were kept in the water for a period of 15 minutes and the duration of immobility observed within the 15-minute test period was recorded. A mouse was judged to be immobile if it floated motionlessly in the water making only those movements necessary to keep its head above the water.

For `CNC(=S)OC[C@H](N)Cc1ccccc1`, the “MES (animals protected/tested)” value (mice (CD-1strain); po, 0.5 h) was 3/3.

`NC(=S)OC[C@@H](N)Cc1ccccc1` was tested, and the “Inhibition (reduction, %)” value (mice (CD-1 strain); i.p. (30 mg/kg)) was 51.2%.

`CNC(=S)OCC(Cc1ccccc1)N(C)C` (stereo not drawn) [drawing 26] was tested, and the “Inhibition (reduction, %)” value (mice (CD-1 strain); i.p. (30 mg/kg)) was 31.4% and the “Inhibition (reduction, %)” value (mice (CD-1 strain); p.o. (30 mg/kg)) was 23.4%.

In the case of `NC(=S)OCC(N)Cc1ccc(Cl)cc1` (stereo not drawn), the “Inhibition (reduction, %)” value (mice (CD-1 strain); i.p. (30 mg/kg)) is reported as 30.6% and the “Inhibition (reduction, %)” value (mice (CD-1 strain); p.o. (30 mg/kg)) is reported as 38.1%.

With `NC(=S)OC[C@H](N)Cc1ccccc1` [drawing 29] the ED50 (mice (CD-1strain); ip, 0.5 h) was 29 mg/kg and the ED50 (mice (CD-1strain); po, 0.5 h) was 189 mg/kg.

`CNC(=S)OCC(Cc1ccccc1)N(C)C` (stereo not drawn) [drawing 33] was tested, and the ED50 (mice (CD-1strain); ip, 1 h) was 31.5 mg/kg and the ED50 (mice (CD-1strain); po, 0.5 h) was 82.5 mg/kg.

With `CN(C)C(=S)OC[C@H](N)Cc1ccc(Cl)c(Cl)c1` the “MES (animals protected/tested)” value (mice (CD-1strain); ip, 4.0 h) was 1/3.

In the case of `NC(=S)OC[C@H](N)Cc1ccccc1` [drawing 22], the “Inhibition (reduction, %)” value (mice (CD-1 strain); i.p. (30 mg/kg)) is reported as 41.6%.
